From US11331379B2, “Compositions and methods for regulating pancreatic beta cell function using adipsin” (Dana-Farber Cancer Institute, Inc., priority 2014, dated 2022)

How the values were obtained:
islets [1] = assay: cytoplasmic free Ca2+ measurement in perifused islets (Fura-2); format: cell-based, mouse
Procedure: (§1) Recombinant C3a and C5a proteins (R&D Systems, Minneapolis, Minn., USA) were used at a concentration of 100 nM. Anti-adipsin antibody for Western blot analysis was from Santa Cruz Biotechnology, Santa Cruz, Calif., USA). Antibodies to C3aR1 (Santa Cruz Biotechnology), C5aR1 (Biolegend, San Diego, Calif., USA) and C5L2 (Hycult Biotechnology, Plymouth Meeting, Pa., USA) were used for flow cytometry. RNA isolation and reverse transcription were performed with TRIzol® (Life Technologies), RNeasy (Qiagen, Valencia, Calif., USA) and cDNA synthesis (Agilent Technologies, Santa Clara, Calif., USA) kits. qPCR reactions were done with SYBR green on an ABI PRISM® 7900HT real time PCR system (Life Technologies).
For measurements of cytoplasmic free Ca^2+ concentration, islets were loaded with 2 μM Fura-2/AM (Molecular Probes, Eugene, Oreg., USA) for 60 min. in the presence or absence of C3a in a buffer containing (in mM) 125 NaCl, 5.9 KCl, 1.28 CaCl2, 1.2 MgCl2, 25 HEPES, and 3 glucose and 0.1% BSA (pH 7.4). After loading, a single islet was transferred to an open perifusion chamber maintained at 37° C. and [Ca^2+], was measured as the 340/380 nm fluorescence ratio using a Spex FluoroLog® spectrophotometer coupled to a Zeiss Axiovert 35 M microscope with a Zeiss Fluar 40×/1.30 oil objective (Carl Zeiss, Gottingen, Germany). Concentrations of 20 mM glucose and 50 mM KCl (in the presence of 3 mM glucose) were used for islet stimulation.

murine islets = assay: static glucose-stimulated insulin secretion (GSIS) assay in isolated islets; format: cell-based, mouse; details: for enhancement of insulin secretion: islets from WT mice on chow diet
Procedure: as §1
Islets were isolated from pancreata of the indicated genotype with collagenase digestion as previously described (Danial et al. (2008) Nat. Med. 14:144-153). For static incubation (batch release) assays, islets were handpicked and placed into basal Krebs buffer containing 3 mM glucose followed by transfer into Krebs solution containing the indicated concentrations of glucose or secretagogues. After 45 min incubation at 37° C., the islets were pelleted and the supernatant was collected for insulin measurement. The pellet was solubilized to assess intracellular insulin content. Insulin was measured by ELISA using mouse insulin as a standard (Crystal Chem Inc., Downers Grove, Ill., USA).

C3aR1 [2] = molecular target: T1, C3aR1 (Mus musculus, UniProt O09047); assay: GSIS assay in islets from wild-type and C3aR1-deficient mice with or without C3a; format: cell-based; details: WT versus C3aR1-deficient islets
T1 construct: endogenous in cells; host or cells: db/db mice (Jackson Laboratories, Stock 000697), whole animal
T1 sequence (O09047 1-477): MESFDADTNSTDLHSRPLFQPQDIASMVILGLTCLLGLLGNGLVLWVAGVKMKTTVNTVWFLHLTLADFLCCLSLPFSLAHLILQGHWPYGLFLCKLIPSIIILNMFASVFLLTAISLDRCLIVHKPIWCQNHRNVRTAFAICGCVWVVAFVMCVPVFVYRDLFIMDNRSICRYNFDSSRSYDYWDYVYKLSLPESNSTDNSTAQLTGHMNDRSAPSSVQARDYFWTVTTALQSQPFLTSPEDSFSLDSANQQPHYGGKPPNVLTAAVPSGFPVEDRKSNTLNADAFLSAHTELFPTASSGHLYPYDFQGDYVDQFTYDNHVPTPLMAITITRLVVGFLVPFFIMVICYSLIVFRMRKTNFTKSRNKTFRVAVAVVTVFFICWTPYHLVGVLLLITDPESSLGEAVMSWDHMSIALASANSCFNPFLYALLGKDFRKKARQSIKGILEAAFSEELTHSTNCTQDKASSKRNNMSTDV
From the text: Panels A and B show the relative expression of Adipsin (Panel A) and C3 (Panel B) in liver, quadriceps muscle (quad), islets, epididymal (epi) and inguinal (ing) fat. Samples were quantitated by qPCR. Panels C-E show the results of flow cytometry performed on islet cells with antibodies to the complement/anaphylatoxin receptors C3aR1 (Panel C), C5aR1 (Panel D), and C5L2 (Panel E). Panels F-G show the results of isolated islets from WT mice on a chow diet (Panel F) or HFD (Panel G) subjected to a GSIS assay in the presence or absence of recombinant C3a and C5a with the indicated concentrations of glucose. Panels H and I show the results of db/db mice transduced with lacZ or adipsin adenovirus ([…]) treated with vehicle or C3aR antagonist (SB 290157) at a dose of 30 mg/kg b.i.d. for 3 days and subjected to an i.p. GTT with measurements of blood glucose concentrations (Panel H) and plasma insulin levels (Panel I) at the indicated times. Statistics for GTT assays between groups: lacZ/vehicle vs. adipsin/vehicle, p=0.05; adipsin/vehicle vs. adipsin/SB 290157, p<0.01; lacZ/SB 290157 vs. adipsin/vehicle, p<0.01. […]
Islets were isolated from pancreata of the indicated genotype with collagenase digestion as previously described (Danial et al. (2008) Nat. Med. 14:144-153). […] Insulin was measured by ELISA using mouse insulin as a standard (Crystal Chem Inc., Downers Grove, Ill., USA).

islets [3] = assay: oxygen consumption rate (OCR) of islets, XF24 analyzer; format: cell-based, mouse
Procedure: as §1
Real-time measurements of mitochondrial oxygen consumption rate (OCR) were performed using the XF24 extracellular flux analyzer instrument and the AKOS algorithm built in the XF24 v1.7.0.74 software (Seahorse Bioscience, Inc., Billerica, Mass., USA). Islets were rinsed with sodium bicarbonate-free DMEM supplemented with 0.5% BSA and 3 mM glucose and 60 islets were distributed per well and recounted for OCR measurements. After baseline measurements, substrates or inhibitors of interests were added in single 50 μl injections delivered through individual injection ports. […] The respiratory rate of each islet sample was measured at 37° C. and analyzed using the Seahorse XF24 v1.5.0.69 software.

C3aR1 [4] = molecular target: T1, C3aR1; assay: C3aR1 antagonist treatment of adipsin-adenovirus-transduced db/db mice, i.p. GTT and plasma insulin; format: in vivo
From the text: Wild-type (WT) and Adipsin^−/− mice (from G. Stahl, Brigham and Women's Hospital, Boston, Mass., USA) were backcrossed 7-10 generations to C57BL/6 (B6) background. Control littermate mice from same backcrossed generations were used for experiments. B6 mice were fed a regular chow diet or a 60% kCal high fat diet (Research Diets, New Brunswick, N.J., USA) for the indicated times. db/db mice (Stock 000697) were purchased from Jackson laboratories (Bar Harbor, Me., USA). For adenoviral expression studies, mice were injected intravenously with lacZ or adipsin-expressing pAd adenoviral vectors (Life Technologies, Grand Island, N.Y., USA) and assayed 5 days later. For C3aR1 antagonist experiments, SB 290157 (N^2-[(2,2-Diphenylethoxy)acetyl]-L-arginine, TFA, Millipore, Billerica, Mass., USA) dosed at 30 mg/kg or vehicle (10% ethanol) was administered by intraperitoneally (i.p.) injections bis in die (b.i.d.) from days 3-5 after adenovirus. Mice were fasted overnight for glucose tolerance tests and given an i.p. injection of D-glucose ([…] for regular diet mice). For insulin tolerance tests, mice were fasted for 5 hours and given an i.p. injection of insulin (0.75 units/kg body weight). Blood samples were taken from the tail vein and measured with a glucometer. The mice were housed in a facility accredited by the American Association for Laboratory Animal Care. The Institutional Animal Care and Use Committee of the Beth Israel Deaconess Medical Center approved studies using animals.

## C3a: Recombinant C3a protein (R&D Systems); complement peptide, direct product of C3 convertase generated by adipsin
Islets [1]; 3 mM glucose, C3a-treated versus control islets
  basal levels of [Ca2+]i: similar
Islets [1]; 20 mM glucose and KCl stimulation
  [Ca2+]i in response to glucose and KCl: potently augmented
Islets [1]; C3a-treated versus non-treated islets
  response times of [Ca2+]i: similar
Islets [1]; KCl stimulation
  increase of [Ca2+]i area under the curve: ~100%
  increase of peak [Ca2+]i: ~100%
Islets [1]; glucose stimulation (20 mM)
  increase of [Ca2+]i area under the curve: ~50%
  increase of peak [Ca2+]i: ~50%
Islets [1]; isolated islets perifused with glucose or KCl in the presence of C3a
  increases in [Ca2+]i: 50-100%
Murine islets; 0.25 mM tolbutamide, C3a 100 nM
  insulin secretion in conjunction with tolbutamide: further stimulated insulin secretion
Murine islets; 30 mM KCl, C3a 100 nM
  insulin secretion in conjunction with KCl: further stimulated insulin secretion
Murine islets; high glucose, 100 nM, acute
  enhancement of insulin secretion: 30-40%
Murine islets; islets from diabetic mice fed a HFD, 100 nM
  insulin secretion in diabetic islets: stimulated insulin secretion
Murine islets; low glucose, 100 nM
  enhancement of insulin secretion: not low
C3aR1 [2]
  C3a-mediated potentiation of glucose-stimulated insulin secretion: C3aR1 is required
Islets [3]; 20 mM glucose, acute C3a, versus control islets
  oxygen consumption with glucose challenge: increased oxygen consumption
Islets [3]; islets, C3a versus control
  ATP-coupled respiration: increases ATP-coupled respiration

## N=C(N)NCCC[C@H](NC(=O)COCC(c1ccccc1)c1ccccc1)C(=O)O.O=C(O)C(F)(F)F [SB 290157, N^2-[(2,2-Diphenylethoxy)acetyl]-L-arginine, TFA]
C3aR1 [4]; db/db mice with adipsin adenovirus, antagonist 30 mg/kg i.p. b.i.d. for 3 days
  improvements in insulin secretion conferred by the adipsin adenovirus: nearly completely reversed
C3aR1 [4]; db/db mice with adipsin adenovirus, antagonist 30 mg/kg i.p. b.i.d. for 3 days, i.p. GTT
  improvements in glucose tolerance conferred by the adipsin adenovirus: nearly completely reversed
C3aR1 [4]; db/db mice, adipsin adenovirus plus SB 290157 30 mg/kg b.i.d. 3 days, i.p. glucose challenge
  insulin induction from time 0 to 20 minutes: 1.4 fold

B1: C5a: Recombinant C5a protein (R&D Systems), complement anaphylatoxin (protein, UniProt P01031 678-751, looked up)
C5a anaphylatoxin: TLQKKIEEIAAKYKHSVVKKCCYDGACVNNDETCEQRAARISLGPRCIKAFTECCVVASQLRANISHKDMQLGR
modifications: C5a anaphylatoxin
Murine islets; C5a 100 nM, GSIS
  enhancement of insulin secretion: did not show this effect
